Assay results: ChEMBL document CHEMBL4308841, “Synthesis, in vitro antiproliferative activity, and kinase inhibitory effects of pyrazole-containing diarylureas and diarylamides” (Eur J Med Chem, 2018)

Experiments:
HT-29 = test: Growth inhibition of human HT-29 cells assessed as cell growth at 10 uM incubated for 48 hrs by sulforhodamine B assay relative to control; format: functional; conditions: HT-29, 48 h, read-out: Activity
RPMI-8226 [1] = test: Growth inhibition of human RPMI8226 cells incubated for 48 hrs by sulforhodamine B assay; format: functional, cell-based; conditions: RPMI-8226, 48 h
HOP-92 [2] = test: Growth inhibition of human HOP92 cells incubated for 48 hrs by sulforhodamine B assay; format: functional, cell-based; conditions: HOP-92, 48 h
OVCAR-8 = test: Growth inhibition of human OVCAR8 cells incubated for 48 hrs by sulforhodamine B assay; format: functional, cell-based; conditions: OVCAR-8, 48 h
BT-549 = test: Growth inhibition of human BT549 cells incubated for 48 hrs by sulforhodamine B assay; format: functional, cell-based; conditions: BT-549, 48 h
[3] = target: RAC-alpha serine/threonine-protein kinase (Homo sapiens) (UniProt P31749); test: Inhibition of human AKT1 at 10 uM using KGSGSGRPRTSSFAEG as substrate after 40 mins in presence of [gamma33P]ATP by scintillation counting method relative to control
[4] = target: ALK tyrosine kinase receptor (Homo sapiens) (UniProt Q9UM73); test: Inhibition of human ALK at 10 uM using poly[Glu:Tyr] (4:1) as substrate after 40 mins in presence of [gamma33P]ATP by scintillation counting method relative to control
Chain of ALK tyrosine kinase receptor (Homo sapiens) (Q9UM73 19-1620 limits assumed): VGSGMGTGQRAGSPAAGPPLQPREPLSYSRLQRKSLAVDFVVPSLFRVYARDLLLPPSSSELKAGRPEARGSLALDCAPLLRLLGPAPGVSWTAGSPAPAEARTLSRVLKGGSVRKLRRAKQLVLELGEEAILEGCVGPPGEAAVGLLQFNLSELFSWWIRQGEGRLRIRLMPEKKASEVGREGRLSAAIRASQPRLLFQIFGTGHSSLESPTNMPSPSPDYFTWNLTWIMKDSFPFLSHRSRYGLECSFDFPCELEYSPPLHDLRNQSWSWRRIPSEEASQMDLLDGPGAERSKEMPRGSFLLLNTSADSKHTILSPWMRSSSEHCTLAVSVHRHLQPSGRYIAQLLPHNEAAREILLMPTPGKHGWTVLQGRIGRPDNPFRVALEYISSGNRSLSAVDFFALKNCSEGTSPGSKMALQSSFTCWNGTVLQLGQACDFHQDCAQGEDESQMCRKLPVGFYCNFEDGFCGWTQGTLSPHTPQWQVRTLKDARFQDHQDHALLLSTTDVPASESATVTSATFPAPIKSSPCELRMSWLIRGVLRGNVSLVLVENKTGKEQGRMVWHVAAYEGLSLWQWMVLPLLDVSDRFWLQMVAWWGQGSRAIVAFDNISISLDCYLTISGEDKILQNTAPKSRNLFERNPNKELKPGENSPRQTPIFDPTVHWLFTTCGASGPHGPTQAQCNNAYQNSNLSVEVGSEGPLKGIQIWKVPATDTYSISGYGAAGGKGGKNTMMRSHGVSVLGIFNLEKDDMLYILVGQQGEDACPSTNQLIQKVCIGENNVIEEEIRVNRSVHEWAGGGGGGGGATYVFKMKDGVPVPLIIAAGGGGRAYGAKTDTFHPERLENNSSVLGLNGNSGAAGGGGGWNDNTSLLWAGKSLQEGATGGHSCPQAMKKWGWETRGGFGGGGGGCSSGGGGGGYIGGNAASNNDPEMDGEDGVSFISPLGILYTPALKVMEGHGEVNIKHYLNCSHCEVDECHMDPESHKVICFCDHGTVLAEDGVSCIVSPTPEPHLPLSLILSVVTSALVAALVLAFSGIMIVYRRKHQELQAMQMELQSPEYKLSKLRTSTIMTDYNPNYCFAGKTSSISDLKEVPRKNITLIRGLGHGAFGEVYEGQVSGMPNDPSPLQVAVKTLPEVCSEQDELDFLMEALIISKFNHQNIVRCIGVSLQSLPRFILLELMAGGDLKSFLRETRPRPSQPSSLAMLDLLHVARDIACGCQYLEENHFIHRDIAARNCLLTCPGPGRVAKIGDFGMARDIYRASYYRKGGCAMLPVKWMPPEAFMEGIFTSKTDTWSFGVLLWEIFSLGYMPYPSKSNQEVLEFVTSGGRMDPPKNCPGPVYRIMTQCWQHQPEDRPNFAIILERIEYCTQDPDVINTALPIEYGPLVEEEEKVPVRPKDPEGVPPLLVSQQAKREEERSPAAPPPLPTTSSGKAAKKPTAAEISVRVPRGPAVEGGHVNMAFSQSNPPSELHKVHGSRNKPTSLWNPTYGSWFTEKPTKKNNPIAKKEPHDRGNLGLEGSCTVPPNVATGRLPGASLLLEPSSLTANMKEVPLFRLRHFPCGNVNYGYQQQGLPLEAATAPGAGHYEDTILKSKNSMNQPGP

[5] = target: Serine/threonine-protein kinase B-raf (Homo sapiens) (UniProt P15056); test: Inhibition of human BRAF at 10 uM using MEK1 (K97R) as substrate after 40 mins in presence of [gamma33P]ATP by scintillation counting method relative to control
Chain of Serine/threonine-protein kinase B-raf (Homo sapiens) (P15056 whole entry): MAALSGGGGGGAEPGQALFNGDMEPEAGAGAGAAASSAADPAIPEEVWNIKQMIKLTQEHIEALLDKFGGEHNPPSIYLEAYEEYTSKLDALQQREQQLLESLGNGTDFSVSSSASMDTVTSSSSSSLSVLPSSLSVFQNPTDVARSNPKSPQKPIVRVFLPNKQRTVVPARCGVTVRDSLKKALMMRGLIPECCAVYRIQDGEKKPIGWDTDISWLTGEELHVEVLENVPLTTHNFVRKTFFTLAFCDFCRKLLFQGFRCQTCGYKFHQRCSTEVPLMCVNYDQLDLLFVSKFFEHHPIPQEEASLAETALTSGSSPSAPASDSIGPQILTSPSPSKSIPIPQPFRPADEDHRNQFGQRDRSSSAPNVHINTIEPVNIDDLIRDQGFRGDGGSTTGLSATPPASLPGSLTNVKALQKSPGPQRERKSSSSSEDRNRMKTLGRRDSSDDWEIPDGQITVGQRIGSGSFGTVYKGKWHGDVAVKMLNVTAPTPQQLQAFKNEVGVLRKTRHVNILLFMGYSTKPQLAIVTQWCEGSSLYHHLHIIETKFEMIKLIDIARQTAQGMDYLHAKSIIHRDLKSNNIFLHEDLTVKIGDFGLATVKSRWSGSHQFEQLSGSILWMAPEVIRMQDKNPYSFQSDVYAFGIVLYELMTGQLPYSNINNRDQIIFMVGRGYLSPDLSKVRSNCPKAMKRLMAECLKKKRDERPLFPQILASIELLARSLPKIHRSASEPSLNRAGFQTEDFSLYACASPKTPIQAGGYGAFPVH

[6] = target: Mast/stem cell growth factor receptor Kit (Homo sapiens) (UniProt P10721); test: Inhibition of human c-KIT at 10 uM using poly[Glu:Tyr] (4:1) as substrate after 40 mins in presence of [gamma33P]ATP by scintillation counting method relative to control
[7] = target: Hepatocyte growth factor receptor (Homo sapiens) (UniProt P08581); test: Inhibition of human c-MET at 10 uM using KKKSPGEYVNIEFG as substrate after 40 mins in presence of [gamma33P]ATP by scintillation counting method relative to control
[8] = target: DNA-dependent protein kinase catalytic subunit (Homo sapiens) (UniProt P78527); test: Inhibition of human DNAPK at 10 uM using EPPLSQEAFADLWKK as substrate after 40 mins in presence of [gamma33P]ATP by scintillation counting method relative to control
[9] = target: Tyrosine-protein kinase JAK2 (Homo sapiens) (UniProt O60674); test: Inhibition of human JAK2 at 10 uM using poly[Glu:Tyr] (4:1) as substrate after 40 mins in presence of [gamma33P]ATP by scintillation counting method relative to control
Chain of Tyrosine-protein kinase JAK2 (Homo sapiens) (O60674 whole entry): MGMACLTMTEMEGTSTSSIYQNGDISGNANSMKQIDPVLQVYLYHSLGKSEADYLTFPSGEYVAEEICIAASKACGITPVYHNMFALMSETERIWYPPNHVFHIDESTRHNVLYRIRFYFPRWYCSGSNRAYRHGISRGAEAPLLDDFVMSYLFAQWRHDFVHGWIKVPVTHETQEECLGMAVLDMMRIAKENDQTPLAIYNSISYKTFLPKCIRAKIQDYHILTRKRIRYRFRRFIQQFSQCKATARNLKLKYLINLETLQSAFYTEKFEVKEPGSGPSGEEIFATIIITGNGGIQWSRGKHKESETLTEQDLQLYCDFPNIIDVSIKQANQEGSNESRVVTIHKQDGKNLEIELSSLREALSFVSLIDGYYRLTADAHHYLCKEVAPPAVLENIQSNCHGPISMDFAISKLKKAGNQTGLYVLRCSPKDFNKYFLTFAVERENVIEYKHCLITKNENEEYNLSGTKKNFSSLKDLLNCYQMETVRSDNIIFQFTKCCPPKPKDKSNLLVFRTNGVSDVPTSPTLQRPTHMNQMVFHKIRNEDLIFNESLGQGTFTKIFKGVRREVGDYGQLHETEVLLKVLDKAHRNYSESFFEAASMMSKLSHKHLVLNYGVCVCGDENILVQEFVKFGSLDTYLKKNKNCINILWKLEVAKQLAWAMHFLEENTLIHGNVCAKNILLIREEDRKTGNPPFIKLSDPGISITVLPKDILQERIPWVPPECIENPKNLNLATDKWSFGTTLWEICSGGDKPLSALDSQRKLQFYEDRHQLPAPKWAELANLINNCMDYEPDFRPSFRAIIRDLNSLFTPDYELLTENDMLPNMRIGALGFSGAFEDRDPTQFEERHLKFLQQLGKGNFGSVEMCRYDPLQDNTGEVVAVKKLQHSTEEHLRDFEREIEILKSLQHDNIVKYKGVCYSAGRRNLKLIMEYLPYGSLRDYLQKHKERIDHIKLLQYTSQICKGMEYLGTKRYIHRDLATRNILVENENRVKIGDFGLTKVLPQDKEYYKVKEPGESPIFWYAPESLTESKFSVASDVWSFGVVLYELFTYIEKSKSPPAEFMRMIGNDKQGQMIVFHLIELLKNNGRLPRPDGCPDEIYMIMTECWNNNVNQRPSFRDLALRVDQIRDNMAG

[10] = target: Mitogen-activated protein kinase 8 (Homo sapiens) (UniProt P45983); test: Inhibition of human JNK1 at 10 uM using ATF2 as substrate after 40 mins in presence of [gamma33P]ATP by scintillation counting method relative to control
Chain of Mitogen-activated protein kinase 8 (Homo sapiens) (P45983 whole entry): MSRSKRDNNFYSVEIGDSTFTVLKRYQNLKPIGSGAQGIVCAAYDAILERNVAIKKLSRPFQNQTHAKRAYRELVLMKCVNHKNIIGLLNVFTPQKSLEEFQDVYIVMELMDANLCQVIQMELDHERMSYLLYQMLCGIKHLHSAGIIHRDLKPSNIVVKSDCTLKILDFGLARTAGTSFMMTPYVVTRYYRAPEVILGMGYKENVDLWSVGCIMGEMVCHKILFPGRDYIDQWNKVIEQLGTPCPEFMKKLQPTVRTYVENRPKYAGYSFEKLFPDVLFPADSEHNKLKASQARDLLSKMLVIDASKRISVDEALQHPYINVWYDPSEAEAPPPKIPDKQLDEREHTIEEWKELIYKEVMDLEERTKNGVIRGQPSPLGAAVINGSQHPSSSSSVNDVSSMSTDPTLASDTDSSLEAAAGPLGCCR

[11] = target: Dual specificity mitogen-activated protein kinase kinase 1 (Homo sapiens) (UniProt Q02750); test: Inhibition of human MEK1 at 10 uM using ERK2 (K52R) as substrate after 40 mins in presence of [gamma33P]ATP by scintillation counting method relative to control
Chain of Dual specificity mitogen-activated protein kinase kinase 1 (Homo sapiens) (Q02750 whole entry): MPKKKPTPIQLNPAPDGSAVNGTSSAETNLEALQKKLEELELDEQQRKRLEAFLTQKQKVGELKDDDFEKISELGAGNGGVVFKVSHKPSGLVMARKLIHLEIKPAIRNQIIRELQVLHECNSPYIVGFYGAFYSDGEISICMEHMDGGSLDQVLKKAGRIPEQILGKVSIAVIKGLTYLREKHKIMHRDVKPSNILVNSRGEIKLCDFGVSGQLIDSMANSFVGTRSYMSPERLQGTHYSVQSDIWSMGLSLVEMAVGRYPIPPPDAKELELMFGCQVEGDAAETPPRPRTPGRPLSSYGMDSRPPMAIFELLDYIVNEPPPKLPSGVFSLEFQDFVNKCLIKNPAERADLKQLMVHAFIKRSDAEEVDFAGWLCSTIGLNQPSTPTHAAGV

[12] = target: Mitogen-activated protein kinase 14 (Homo sapiens) (UniProt Q16539); test: Inhibition of human p38alpha at 10 uM using myelin basic protein as substrate after 40 mins in presence of [gamma33P]ATP by scintillation counting method relative to control
Chain of Mitogen-activated protein kinase 14 (Homo sapiens) (Q16539 whole entry): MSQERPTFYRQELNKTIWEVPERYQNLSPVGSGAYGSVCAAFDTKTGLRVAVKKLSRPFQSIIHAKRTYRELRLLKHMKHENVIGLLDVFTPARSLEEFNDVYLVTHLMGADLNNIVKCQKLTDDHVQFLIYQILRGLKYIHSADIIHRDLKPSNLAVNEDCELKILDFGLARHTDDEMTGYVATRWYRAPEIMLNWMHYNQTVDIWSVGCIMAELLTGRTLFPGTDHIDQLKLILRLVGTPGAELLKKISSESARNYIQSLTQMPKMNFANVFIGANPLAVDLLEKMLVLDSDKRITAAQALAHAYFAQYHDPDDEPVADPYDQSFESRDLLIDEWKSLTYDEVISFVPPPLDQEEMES

[13] = tested on: Serine/threonine-protein kinase B-raf (Homo sapiens), P15056 [V600E]; test: Inhibition of human BRAF V600E mutant at 10 uM using MEK1 (K97R) as substrate after 40 mins in presence of [gamma33P]ATP by scintillation counting method relative to control
Chain of Serine/threonine-protein kinase B-raf (Homo sapiens), P15056 [V600E] (P15056 whole entry V600E): as the sequence (P15056 whole entry) above, with V600E counted along it

RPMI-8226 [14] = test: Induction of apoptosis in human RPMI8226 cells assessed as increase in caspase 3/7 level at 10 uM relative to control; format: functional
RPMI-8226 [15] = test: Induction of apoptosis in human RPMI8226 cells assessed as increase in caspase 3/7 level; format: functional, cell-based
SK-OV-3 = test: Growth inhibition of human SKOV3 cells assessed as cell growth at 0.01 uM incubated for 48 hrs by sulforhodamine B assay relative to control; format: functional; conditions: SK-OV-3, 48 h, read-out: Activity
IGROV-1 = test: Growth inhibition of human IGROV1 cells assessed as cell growth at 0.1 uM incubated for 48 hrs by sulforhodamine B assay relative to control; format: functional; conditions: IGROV-1, 48 h, read-out: Activity
CAKI-1 = test: Growth inhibition of human Caki1 cells assessed as cell growth at 0.1 uM incubated for 48 hrs by sulforhodamine B assay relative to control; format: functional; conditions: CAKI-1, 48 h, read-out: Activity
HOP-92 [16] = test: Growth inhibition of human HOP92 cells assessed as cell growth at 1 uM incubated for 48 hrs by sulforhodamine B assay relative to control; format: functional; conditions: HOP-92, 48 h, read-out: Activity
TK-10 [17] = test: Growth inhibition of human TK10 cells assessed as cell growth at 1 uM incubated for 48 hrs by sulforhodamine B assay relative to control; format: functional; conditions: TK-10, 48 h, read-out: Activity
HOP-92 [18] = test: Growth inhibition of human HOP92 cells assessed as cell growth at 100 uM incubated for 48 hrs by sulforhodamine B assay relative to control; format: functional; conditions: HOP-92, 48 h, read-out: Activity
SW-620 = test: Growth inhibition of human SW620 cells assessed as cell growth at 100 uM incubated for 48 hrs by sulforhodamine B assay relative to control; format: functional; conditions: SW-620, 48 h, read-out: Activity
UACC-257 = test: Growth inhibition of human UACC257 cells assessed as cell growth at 100 uM incubated for 48 hrs by sulforhodamine B assay relative to control; format: functional; conditions: UACC-257, 48 h, read-out: Activity
TK-10 [19] = test: Growth inhibition of human TK10 cells assessed as cell growth at 100 uM incubated for 48 hrs by sulforhodamine B assay relative to control; format: functional; conditions: TK-10, 48 h, read-out: Activity
[20] = read-out: LC50 (the source's name)
[21] = read-out: pLC50 (the source's name) (converted)

COc1cc(Cl)cc(-c2nn(-c3cccc(NC(=O)Nc4cc(C(F)(F)F)cc(C(F)(F)F)c4)c3)cc2-c2ccncc2)c1
growth at 10 µM (HT-29): 3.93% | IC50 (RPMI-8226 [1]): 240 nM | GI50 (RPMI-8226 [1]; read-out: GI50): 238 nM | CC50 (RPMI-8226 [1]; [20]): > 100000 nM | TGI (RPMI-8226 [1]; read-out: TGI): 760 nM | GI50 (RPMI-8226 [1]; read-out: pGI50 (converted)): 234 nM | CC50 (RPMI-8226 [1]; [21]): > 100000 nM | TGI (RPMI-8226 [1]; read-out: pTGI (converted)): 759 nM | IC50 (HOP-92 [2]): 230 nM | GI50 (HOP-92 [2]; read-out: GI50): 228 nM | CC50 (HOP-92 [2]; [20]): 2010 nM | TGI (HOP-92 [2]; read-out: TGI): 780 nM | GI50 (HOP-92 [2]; read-out: pGI50 (converted)): 229 nM | CC50 (HOP-92 [2]; [21]): 20000 nM | TGI (HOP-92 [2]; read-out: pTGI (converted)): 776 nM | IC50 (OVCAR-8): 390 nM | GI50 (OVCAR-8; read-out: GI50): 391 nM | TGI (OVCAR-8; read-out: TGI): 2190 nM | GI50 (OVCAR-8; read-out: pGI50 (converted)): 389 nM | CC50 (OVCAR-8; [21]): 47900 nM | TGI (OVCAR-8; read-out: pTGI (converted)): 2190 nM | IC50 (BT-549): 2220 nM | GI50 (BT-549; read-out: GI50): 2220 nM | TGI (BT-549; read-out: TGI): 7140 nM | GI50 (BT-549; read-out: pGI50 (converted)): 2820 nM | CC50 (BT-549; [21]): 61700 nM | TGI (BT-549; read-out: pTGI (converted)): 7080 nM | inhibition [3]: -5.92% | inhibition [4]: -3.77% | inhibition [5]: 39.1% | inhibition [6]: 1.25% | inhibition [7]: 5.66% | inhibition [8]: 3.5% | inhibition [9]: -2.88% | inhibition [10]: 2.27% | inhibition [11]: -7.99% | inhibition [12]: -5.41% | inhibition [13]: 94.7% | fold change (FC) (RPMI-8226 [14]): 2.79 | EC50 (RPMI-8226 [15]): 1520 nM | growth at 0.01 µM (SK-OV-3): 100% | growth at 0.1 µM (IGROV-1): 104% | growth at 0.1 µM (CAKI-1): 95% | growth at 1 µM (HOP-92 [16]): -10% | growth at 1 µM (TK-10 [17]): 42% | growth at 100 µM (HOP-92 [18]): -77% | growth at 100 µM (SW-620): -72% | growth at 100 µM (UACC-257): -88% | growth at 100 µM (TK-10 [19]): -91%
